The text below walks through data of paper PMC10368209, “Indolo[2,3-e]benzazocines and indolo[2,3-f]benzazonines and their copper(II) complexes as microtubule destabilizing agents” (Dalton Transactions (Cambridge, England : 2003), 2023).

What is called IC50 is the concentration needed to halve the response being measured.

Holding throughout (assay): In vitro cytotoxicity MTT assay
(In general: Formazan colour is commonly taken as a measure of viable cells.)

Test [1] relates to Colo205 human colon adenocarcinoma cell line. Format: cell-based. As to conditions: 72 h incubation, MTT. From the text:
(§1) Four cell lines were used in this study: the doxorubicin-sensitive Colo205 (CCL-222, ATCC, Manassas, VA, USA) human colon adenocarcinoma cell line; the doxorubicin-resistant Colo320/MDR-LRP expressing P-glycoprotein (P-gp, ABCB1) (MDR1)-LRP (CCL-220.1, ATCC) human colon adenocarcinoma cell line; the hormone-responsive MCF-7 breast cancer cell line and the normal MRC-5 human embryonal lung fibroblast cell line (CCL-171, ATCC). The human cancer cell lines were purchased from LGC Promochem (Teddington, UK), and the MRC-5 cell line is a Sigma-Aldrich (Merck KGaA, Darmstadt, Germany) product. The Colo205 and Colo320 cell lines were cultured in RPMI 1640 medium supplemented with 10% fetal bovine serum (FBS), 2 mM L-glutamine, 1 mM Na-pyruvate and 10 mM HEPES. The MCF-7 and MRC-5 cells were cultured in Eagle's Minimal Essential Medium (EMEM) containing 4.5 g L^−1 of glucose and supplemented with a non-essential amino acid mixture, a selection of vitamins and 10% FBS. All cell lines were incubated at 37 °C, 5% CO2, 95% air atmosphere. The cells were detached with Trypsin-Versene (EDTA) solution for 5 min at 37 °C.
(§2) Prior to the cytotoxicity assays 10 mM stock solutions of the tested compounds were prepared in DMSO. These stock solutions were diluted with the culture medium (EMEM or RPMI 1640), and twofold serial dilutions of the compounds were prepared in 100 μL of the appropriate medium. […] The positive control was doxorubicin (Merck), and CuCl2 was also tested. All cancer cells were treated with Trypsin-Versene (EDTA) solution. A cell density of 1 × 10^4 cells was adjusted for the colon adenocarcinoma cells in 100 μL of RPMI 1640 medium and were added to each well, except for the medium control wells. The final volume was 200 μL in the wells containing compounds and cells. The MCF-7 and MRC-5 cells were seeded overnight prior to the assay. The following day, the serial dilution of the compounds were made in separate plates and added to the cells. The culture plates were incubated at 37 °C for 72 h; and at the end of the incubation period, 20 μL of 5 mg mL^−1 3-(4,5-dimethylthiazol-2-yl)-2,5-diphenyltetrazolium bromide (MTT) solution was added to each well and incubated for 4 h at 37 °C. The plates were further incubated at 37 °C overnight following the addition of 100 μL of sodium dodecyl sulfate (SDS) solution (10% in 0.01 M HCl). The optical density (OD) was measured at 450 nm (ref. 620 nm) with a Multiscan EX ELISA reader to follow the cell growth. Inhibition of cell growth (expressed as IC50: inhibitory concentration that reduces by 50% the growth of the cells exposed to the tested compounds) was determined from the sigmoid curve, where 100 − ((ODsample − ODmedium control)/(ODcell control − ODmedium control)) × 100 values were plotted against the logarithm of compound concentrations. The sigmoidal dose–response model (comparing variable and fixed slopes) of the GraphPad Prism software[88] was used to fit the curves. The IC50 values are averages from at least 3 independent experiments.

Test [2] concerns doxorubicin-resistant Colo320 human colon adenocarcinoma cell line. Format: cell-based. As to conditions: 72 h incubation, MTT.
Source text: as §1, §2

Test [3] has as its system normal human embryonal lung fibroblast cells (MRC-5). The class given is cell-based.
Source text: as §1, §2

Test [4] deals with MCF-7 breast cancer cells. The class given is cell-based, human. As to conditions: 72 h incubation, MTT. The method, then: The human cancer cell lines were purchased from LGC Promochem (Teddington, UK), and the MRC-5 cell line is a Sigma-Aldrich (Merck KGaA, Darmstadt, Germany) product. […] The MCF-7 and MRC-5 cells were cultured in Eagle's Minimal Essential Medium (EMEM) containing 4.5 g L^−1 of glucose and supplemented with a non-essential amino acid mixture, a selection of vitamins and 10% FBS. […] The cells were detached with Trypsin-Versene (EDTA) solution for 5 min at 37 °C.
Prior to the cytotoxicity assays 10 mM stock solutions of the tested compounds were prepared in DMSO. […] The positive control was doxorubicin (Merck), and CuCl2 was also tested. All cancer cells were treated with Trypsin-Versene (EDTA) solution. […] The final volume was 200 μL in the wells containing compounds and cells. The MCF-7 and MRC-5 cells were seeded overnight prior to the assay. The following day, the serial dilution of the compounds were made in separate plates and added to the cells. The culture plates were incubated at 37 °C for 72 h; and at the end of the incubation period, 20 μL of 5 mg mL^−1 3-(4,5-dimethylthiazol-2-yl)-2,5-diphenyltetrazolium bromide (MTT) solution was added to each well and incubated for 4 h at 37 °C. The plates were further incubated at 37 °C overnight following the addition of 100 μL of sodium dodecyl sulfate (SDS) solution (10% in 0.01 M HCl). The optical density (OD) was measured at 450 nm (ref. 620 nm) with a Multiscan EX ELISA reader to follow the cell growth. […] The sigmoidal dose–response model (comparing variable and fixed slopes) of the GraphPad Prism software[88] was used to fit the curves. The IC50 values are averages from at least 3 independent experiments.

Take `COc1cccc2c1C(=O)c1c(O)c3c(c(O)c1C2=O)C[C@@](O)(C(=O)CO)C[C@@H]3O[C@H]1C[C@H](N)[C@H](O)[C@H](C)O1` [Doxorubicin, doxorubicin, reference compound]: the IC50 in test [1] (Homo sapiens, COLO 205) came out at 0.82 ± 0.02 µM; in test [2] (Homo sapiens, COLO 320) it was 3.3 ± 0.1 µM; in test [3] (Homo sapiens, MRC5, 72 h incubation) it was 1.16 ± 0.11 µM; in test [4] (Homo sapiens, MCF7) it was 0.21 ± 0.03 µM.
For `[Cl][Cu][Cl]` [CuCl2, reference compound], the IC50 amounted to 33 ± 1 µM in test [1], 20 ± 2 µM in test [2], 40 ± 1 µM in test [3] (72 h incubation) and 32 ± 3 µM in test [4].
